# US20090143335A1, “MODIFIED ABSORPTION FORMULATION OF GABOXADOL” (H. LUNDBECK A/S, priority 2007, published 2009)
# Assay: Pharmacokinetics of gaboxadol in beagle dogs, IV or PO, with or without co-administered tryptophan
# Assay type: in vivo
# Details: dog; for bioavailability: Fa (bioavailability)
# Method: Prior to commencement of the studies the protocols were approved by the Animal Welfare Committee, appointed by the Danish Ministry of Justice and all animal procedures were carried out in compliance with EC Directive 86/609/EEC, the Danish law regulating experiments on animals and NIH Guidelines for the Care and Use of Laboratory Animals. 6 full-grown male beagle dogs (body weight 15.9-21.7 kg) were selected and allocated into a roman quadrant design and assigned to receive all 6 formulations of gaboxadol hydrochloride randomly during 6 weeks. The dogs were fasted 20-24 hours before the initiation of the experiment and fed again 10 hours after the administration. The gaboxadol dose was given either as an intravenous injection (1.0 ml/kg) or as an oral solution given by gavage (5.0 ml/kg) directly into the stomach using a soft tube. All dogs received 2.5 mg/kg gaboxadol. In addition to gaboxadol, the oral formulations contained 0, 2.5, 10.0, 50.0 or 150.0 mg/kg of tryptophan to ensure simultaneous co-administration of the two compounds. All solutions were adjusted to a pH of 5.2 and osmolarity was checked with a Vapro vapour pressure osmometer (model 5520, Wescor Inc. Logan, Utah, USA), the intravenous solutions were adjusted to isoosmolarity with glucose. Blood samples of 2.0 ml were taken from the vena cephalica by individual vein puncture and collected into Eppendorf tubes containing 200 IE heparin as anticoagulant. Samples were collected before administration of gaboxadol and after 5, 15, 30, 60, 90 minutes and 2, 3, 4, 6, 8 and 10 hours after gaboxadol administration. The plasma was harvested immediately by centrifugation for 15 minutes at 2200 g and 4-8° C. and stored at −80° C. until further analysis. After each day of gaboxadol dosing the animals had 6 days of washout.
# The pharmacokinetics (PK) was evaluated in WinNonlin. Plasma concentrations curves of the animals dosed intravenously were fitted to a 2-compartment model whereas the data from animals dosed orally were analysed in a non-compartment model. Statistical analysis was done in Sigma Stat.
# Gaboxadol was extracted from plasma and HBSS^+ samples by liquid extraction. 100 μl HBSS^+ (80 μl purified water were added to the 20 μl samples) or 100 μl plasma samples were mixed with 25 μl intern standard (d4-gaboxadol) and 25 μl purified water. Protein precipitation was carried out by addition of 400 μl cold acetonitrile. After centrifugation at 10,000 g in 15 minutes, 425 μl supernatant was transferred to glass tubes and evaporated to dryness under nitrogen at 45° C. The samples were re-solved in 80 μl methanol/acetonitrile (30:70), whirl mixed for 10 minutes and centrifuged in 3 minutes at 3000 rpm, before transferal to medium well plates and placed at 10° C. in the autosampler. Gaboxadol concentration in the extracted samples was subsequently quantified by hydrophilic interaction chromatography (HILIC-chromatography) followed by MS/MS detection. The LC system comprised of an Agilent 1100 series pump and degasser, a CTC Analytics interface transferred data to the computer and a Peltier Thermostat and HTC Pal autosampler handled the samples. An Asahipak amino column, (NH2P-50, 150×2 mm) from Phenomenex was used for the chromatographic separation with a mobile phase of 20.0 mM ammoniumacetat pH=4:acetonitrile (30:70) and a flow rate of 0.2 ml/min. 20 μL samples were injected onto the column, which was kept at room temperature. The total runtime was 10 minutes with the first 5 minutes of elution let to waste. The elution time of gaboxadol on the column was approximately 8 minutes. The MS/MS system used consisted of a Sciex API 4000 MS/MS detector with a Turbo Ion Spray and Turbo V source (Applied Biosystems). The detection was performed in negative ionization mode where gaboxadol (precursor 139.1 Da, product 110.1 Da) and d4-gaboxadol (precursor 143.0, product 112.2 Da) were measured by multiple-reaction-monitoring (MRM). […]
# [1] = male, beagle, in vivo, po, 2.5 mg/kg
# [2] = male, beagle, in vivo, po, 10 mg/kg
# [3] = male, beagle, in vivo, po, 50 mg/kg
# [4] = male, beagle, in vivo, po, 150 mg/kg
structure (smiles),measurement,setting,value
"Oc1noc2c1CCNC2 [gaboxadol, 4,5,6,7-tetrahydroisoxazolo [5,4-c]pyridine-3-ol]","decrease of maximal gaboxadol plasma concentration, Cmax, by tryptophan coadministration","PO 2.5 mg/kg gaboxadol, presence vs absence of 150 mg/kg tryptophan, p<0.001",57%
same,ke,"group A, IV 2.5 mg gaboxadol/kg, tryptophan 0 mg/kg",1.02 ± 0.14 h⁻¹
same,ke,"group B, PO 2.5 mg gaboxadol/kg, tryptophan 0 mg/kg",0.46 ± 0.02 h⁻¹
same,ke,"group C, PO 2.5 mg gaboxadol/kg, tryptophan 2.5 mg/kg",0.50 ± 0.03 h⁻¹
same,ke,"group D, PO 2.5 mg gaboxadol/kg, tryptophan 10 mg/kg",0.44 ± 0.03 h⁻¹
same,ke,"group E, PO 2.5 mg gaboxadol/kg, tryptophan 50 mg/kg",0.50 ± 0.03 h⁻¹
same,ke,"group F, PO 2.5 mg gaboxadol/kg, tryptophan 150 mg/kg",0.48 ± 0.07 h⁻¹
same,effect of tryptophan coadministration on elimination rate constants (ke) and clearance (CL) of gaboxadol,"in vivo, po",did not change
same,clearance,"male, beagle, in vivo, iv, 2.5 mg/kg",7.6 mL/min/kg
same,AUC,"male, beagle, in vivo, iv, 2.5 mg/kg, AUC",5620 ± 377 ng·h/mL
same,Cmax,"male, beagle, in vivo, iv, 2.5 mg/kg, Cmax",5490 ± 404 ng/mL
same,AUC,[1],4760 ± 350 ng·h/mL
same,Cmax,[1],2473 ± 178 ng/mL
same,Fa (bioavailability),[1],86.1%
same,Tmax,[1],21 ± 7.8 min
same,AUC,"male, beagle, in vivo, po, 2.5 mg/kg, AUC",4720 ± 248 ng·h/mL
same,Cmax,"male, beagle, in vivo, po, 2.5 mg/kg, Cmax",2500 ng/mL
same,bioavailability,[1],85.3 ± 5.7%
same,Tmax,"male, beagle, in vivo, po, 2.5 mg/kg, Tmax",27.6 min
same,CL,[2],10.8 ± 0.983 mL/min/kg
same,AUC,"male, beagle, in vivo, po, 10 mg/kg, AUC",4030 ± 339 ng·h/mL
same,Cmax,"male, beagle, in vivo, po, 10 mg/kg, Cmax",1870 ± 114 ng/mL
same,bioavailability,[2],75%
same,Tmax,"male, beagle, in vivo, po, 10 mg/kg, Tmax",32.4 ± 9 min
same,CL,[3],9.82 ± 0.433 mL/min/kg
same,AUC,"male, beagle, in vivo, po, 50 mg/kg, AUC",4290 ± 211 ng·h/mL
same,Cmax,"male, beagle, in vivo, po, 50 mg/kg, Cmax",1660 ± 37 ng/mL
same,bioavailability,[3],78.2 ± 6.3%
same,Tmax,"male, beagle, in vivo, po, 50 mg/kg, Tmax",27.6 ± 7.2 min
same,CL,[4],11.7 ± 2.53 mL/min/kg
same,AUC,"male, beagle, in vivo, po, 150 mg/kg, AUC",4400 ± 801 ng·h/mL
same,Cmax,"male, beagle, in vivo, po, 150 mg/kg, Cmax",1420 ng/mL
same,bioavailability,[4],79.7 ± 14.5%
same,Tmax,"male, beagle, in vivo, po, 150 mg/kg, Tmax",90 min
